Consider 13 compounds from ChEMBL document CHEMBL5523728, “Fragment-Based Discovery of a Series of Allosteric-Binding Site Modulators of β-Glucocerebrosidase” (J Med Chem, 2024).

Activity calls are given as the source filed them. No cut-off for these calls is given here.

The target of test [1] is T1, Lysosomal acid glucosylceramidase (Homo sapiens, UniProt P04062).
T1 sequence (P04062 whole entry): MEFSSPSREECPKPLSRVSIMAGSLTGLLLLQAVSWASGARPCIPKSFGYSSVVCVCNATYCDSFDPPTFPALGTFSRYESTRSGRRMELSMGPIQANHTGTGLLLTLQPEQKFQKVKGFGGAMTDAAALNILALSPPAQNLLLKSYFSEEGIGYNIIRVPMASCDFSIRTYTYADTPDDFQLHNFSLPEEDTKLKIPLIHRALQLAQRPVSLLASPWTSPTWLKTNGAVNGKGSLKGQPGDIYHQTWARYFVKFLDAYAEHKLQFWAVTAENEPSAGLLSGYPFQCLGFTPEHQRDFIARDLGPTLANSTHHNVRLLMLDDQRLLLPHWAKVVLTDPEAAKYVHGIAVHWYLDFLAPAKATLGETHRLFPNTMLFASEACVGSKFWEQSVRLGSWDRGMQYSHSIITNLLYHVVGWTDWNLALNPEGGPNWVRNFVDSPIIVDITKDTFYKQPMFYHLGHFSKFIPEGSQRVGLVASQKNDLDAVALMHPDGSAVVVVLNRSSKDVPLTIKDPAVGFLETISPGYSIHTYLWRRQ
Put plainly: biochemical.
Description: Binding affinity to human Avi/10-his tagged GCase (40 to 536 residues) expressed baculovirus expression system in Sf9 cells in assessed as dissociation constant by isothermal titration calorimetry analysis

The target in test [2] is T1, Lysosomal acid glucosylceramidase. Put plainly: Positive allosteric modulation of GCase in human Fibroblast cells using GBA1-FQ2 as substrate preincubated for 24 hrs followed by substrate addition and measured after 3 hrs by Hoechst 33342 staining based imaging analysis. The test is classed as cell-based.
Test [3] has as its target T2, Lysosomal acid glucosylceramidase (Homo sapiens) (UniProt P04062).
T2 sequence (whole entry): T1 sequence (P04062 whole entry)
Conditions: Fibroblast, dose 0.5 mM, time 27.0 hrs.

For the compound `NCC(O)CNS(=O)(=O)c1ccccc1F` (racemic), the affinity in test [1], expressed as Kd, was 180 µM. The same measure, in the same setting: as for `Cc1ccc(S(=O)(=O)NCC(C)N)cc1` (racemic), the figure is 100 µM; as for `O=S(=O)(NCC1CC1)c1ccccc1`, 410 µM.

In test [2], `CCCOc1cc(F)cc(S(=O)(=O)N(C)C[C@@H](N)c2cccc(N(C)C)c2)c1` showed an EC50 of 8.9 µM. In test [1], the affinity, expressed as Kd, was 0.018 µM.

In test [1], `N[C@H](CNS(=O)(=O)c1ccccc1)c1ccccc1` displayed a Kd of 7 µM.

As for `CN(CC(F)F)c1cccc([C@@H](N)CN(C)S(=O)(=O)c2cc(F)cc(F)c2)c1`, the affinity in test [1], expressed as Kd, was 0.22 µM. Compound `CN(C[C@@H](N)c1cccc(Br)c1)S(=O)(=O)c1cc(F)cc(F)c1` had a Kd in test [1] of 0.18 µM. Still for that read-out and setting: the same measure for `N[C@H](CNS(=O)(=O)c1cc(F)cc(F)c1)c1ccccc1`: 1 µM. As to `O[C@H]1[C@H](O)[C@@H](O)[C@@H]2O[C@@H]2[C@@H]1O`, the inhibition result in test [3] was “Active”.

For the compound `N[C@H](CNS(=O)(=O)c1cccc(F)c1)c1ccccc1`, the Kd in test [1] came to 3 µM. This counts as single-digit micromolar. On the same count and under the same terms, the same measure for `CN(C[C@H](N)c1cccc(Cl)c1)S(=O)(=O)c1cc(F)cc(F)c1`: 0.25 µM.

In test [2], `C=C(C)c1cccc([C@@H](N)CN(C)S(=O)(=O)c2cc(F)cc(F)c2)c1` returned an EC50 of 9 µM. Further, in test [1], the Kd was 0.05 µM. With `c1ccc(CC2CCNCC2)cc1`, the affinity in test [1], expressed as Kd, was 19 µM.

What is called Kd is the free concentration of one partner at which half of the binding sites on the other are occupied at equilibrium, for simple one-to-one binding. The low end stands for higher affinity, the high end for lower affinity. One may read the EC50 as the concentration that produces a half-maximal response. High values mean a need for much substance, low ones an effect from little substance.
